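The compound was tested at five concentrations on cells cultured in 96-well plates, with a 48-hour exposure period. At the GI50, growth is halved.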 Activity calls are given as the source filed them. Cut-off read from the data, not from the text of the source: active = GI50 up to about 1.1 µM and inactive = higher.
What was measured:
Assay in all cases: growth of human tumour cells (NCI), 48 h
TK-10 = tested on: TK-10
MOLT-4 = tested on: MOLT-4
UACC-257 = tested on: UACC-257
CCRF-CEM = tested on: CCRF-CEM
CAKI-1 = tested on: CAKI-1
A549 = tested on: A549
M14 = tested on: M14
OVCAR-8 = tested on: OVCAR-8
SF-268 = tested on: SF-268
HT-29 = tested on: HT-29
NCI-H23 = tested on: NCI-H23
NCI-H460 = tested on: NCI-H460
KM12 = tested on: KM12
HOP-92 = tested on: HOP-92
PC-3 = tested on: PC-3
EKVX = tested on: EKVX
786-0 = tested on: 786-0
UO-31 = tested on: UO-31
NCI-H522 = tested on: NCI-H522
BT-549 = tested on: BT-549

Row | Structure (SMILES) | GI50 (TK-10) | GI50 (MOLT-4) | GI50 (UACC-257) | GI50 (CCRF-CEM) | GI50 (CAKI-1) | GI50 (A549) | GI50 (M14) | GI50 (OVCAR-8) | GI50 (SF-268) | GI50 (HT-29) | GI50 (NCI-H23) | GI50 (NCI-H460) | GI50 (KM12) | GI50 (HOP-92) | GI50 (PC-3) | GI50 (EKVX) | GI50 (786-0) | GI50 (UO-31) | GI50 (NCI-H522) | GI50 (BT-549)
1 | CC1=C(CO)C2=C(C)C3(CC3)[C@@](C)(O)C(=O)C2=C1 [IROFULVEN] | 0.279 µM (active) | 0.785 µM (active) | 0.227 µM (active) | 1.82 µM (inactive) | 0.265 µM (active) | 0.113 µM (active) | 0.258 µM (active) | 0.219 µM (active) | 0.234 µM (active) | 0.234 µM (active) | 0.0877 µM (active) | 0.0467 µM (active) | 0.697 µM (active) | 0.309 µM (active) | 0.267 µM (active) | 0.19 µM (active) | 0.199 µM (active) | 0.19 µM (active) | 0.146 µM (active) | –
2 | N#Cc1nc(Cc2ccccc2)oc1N | > 100 µM (inactive) | > 100 µM (inactive) | > 100 µM (inactive) | 44.3 µM (inactive) | > 100 µM (inactive) | > 100 µM (inactive) | > 100 µM (inactive) | – | > 100 µM (inactive) | > 100 µM (inactive) | > 100 µM (inactive) | > 100 µM (inactive) | > 100 µM (inactive) | – | > 100 µM (inactive) | > 100 µM (inactive) | > 100 µM (inactive) | > 100 µM (inactive) | – | > 100 µM (inactive)
3 | CN(CCO)c1nc(N)cc(=O)[nH]1 | > 100 µM (inactive) | > 100 µM (inactive) | > 100 µM (inactive) | > 100 µM (inactive) | > 100 µM (inactive) | > 100 µM (inactive) | > 100 µM (inactive) | > 100 µM (inactive) | > 100 µM (inactive) | > 100 µM (inactive) | > 100 µM (inactive) | > 100 µM (inactive) | > 100 µM (inactive) | > 100 µM (inactive) | – | > 100 µM (inactive) | > 100 µM (inactive) | > 100 µM (inactive) | > 100 µM (inactive) | –
4 | Cn1c(=O)[nH]c2sc3c(c2c1=N)CCCC3 | > 75 µM (inactive) | > 75 µM (inactive) | > 75 µM (inactive) | – | > 75 µM (inactive) | – | – | > 75 µM (inactive) | > 75 µM (inactive) | > 75 µM (inactive) | > 75 µM (inactive) | > 75 µM (inactive) | > 75 µM (inactive) | – | > 75 µM (inactive) | 54.7 µM (inactive) | > 75 µM (inactive) | > 75 µM (inactive) | > 75 µM (inactive) | > 75 µM (inactive)
5 | Oc1ccc(-c2c3ccccc3c(-c3ccc(O)cc3)c3ccccc23)cc1 | > 100 µM (inactive) | > 100 µM (inactive) | > 100 µM (inactive) | > 100 µM (inactive) | > 100 µM (inactive) | > 100 µM (inactive) | > 100 µM (inactive) | > 100 µM (inactive) | > 100 µM (inactive) | > 100 µM (inactive) | > 100 µM (inactive) | > 100 µM (inactive) | > 100 µM (inactive) | > 100 µM (inactive) | – | > 100 µM (inactive) | > 100 µM (inactive) | > 100 µM (inactive) | > 100 µM (inactive) | –
6 | CCOC(=O)Cc1csc(N/C=C2/C(=O)Oc3ccccc3C2=O)n1 | 24.7 µM (inactive) | 10.2 µM (inactive) | 20.8 µM (inactive) | 26.6 µM (inactive) | 26.2 µM (inactive) | 34.2 µM (inactive) | 23.8 µM (inactive) | 13.1 µM (inactive) | 24.8 µM (inactive) | 39.1 µM (inactive) | 22.8 µM (inactive) | 45.4 µM (inactive) | 27.8 µM (inactive) | 11.7 µM (inactive) | 32.2 µM (inactive) | 35.8 µM (inactive) | 26.4 µM (inactive) | 14.9 µM (inactive) | 13.5 µM (inactive) | –
7 | CC1=C([S+]([O-])c2ccc(C)cc2)CCC2(CCCCO2)O1 (centres undefined) | > 100 µM (inactive) | > 100 µM (inactive) | > 100 µM (inactive) | – | > 100 µM (inactive) | – | – | > 100 µM (inactive) | > 100 µM (inactive) | > 100 µM (inactive) | > 100 µM (inactive) | > 100 µM (inactive) | > 100 µM (inactive) | – | > 100 µM (inactive) | > 100 µM (inactive) | > 100 µM (inactive) | > 100 µM (inactive) | > 100 µM (inactive) | > 100 µM (inactive)
8 | CC(=O)CC(N)=O | > 100 µM (inactive) | > 100 µM (inactive) | > 100 µM (inactive) | > 100 µM (inactive) | > 100 µM (inactive) | > 100 µM (inactive) | > 100 µM (inactive) | > 100 µM (inactive) | > 100 µM (inactive) | > 100 µM (inactive) | > 100 µM (inactive) | > 100 µM (inactive) | > 100 µM (inactive) | > 100 µM (inactive) | – | > 100 µM (inactive) | > 100 µM (inactive) | > 100 µM (inactive) | > 100 µM (inactive) | –
9 | Cn1cc(NC(=O)c2cc(NC(=O)CCCCCCCCCC(=O)Nc3cc(C(=O)Nc4cc(C(=O)NCCC(=N)N)n(C)c4)n(C)c3)cn2C)cc1C(=O)NCCC(=N)N | 22.7 µM (inactive) | 25.1 µM (inactive) | 15.8 µM (inactive) | 22.6 µM (inactive) | 32 µM (inactive) | 18.7 µM (inactive) | 23.1 µM (inactive) | 25.7 µM (inactive) | 21.8 µM (inactive) | 20.7 µM (inactive) | 34.8 µM (inactive) | 23.9 µM (inactive) | 13.1 µM (inactive) | 16.4 µM (inactive) | – | 28.6 µM (inactive) | 29.4 µM (inactive) | 53.5 µM (inactive) | 11 µM (inactive) | –
10 | c1csc(-c2nnc(C34CC5CC(CC(C5)C3)C4)o2)c1 | 47.4 µM (inactive) | 24.7 µM (inactive) | – | 21.7 µM (inactive) | 87.1 µM (inactive) | 39.4 µM (inactive) | 37.2 µM (inactive) | 37.6 µM (inactive) | 46.5 µM (inactive) | 19 µM (inactive) | 42.7 µM (inactive) | 39.9 µM (inactive) | 52 µM (inactive) | 29.1 µM (inactive) | 28 µM (inactive) | 44.1 µM (inactive) | 24.7 µM (inactive) | 3.96 µM (inactive) | 36.8 µM (inactive) | –
11 | CCOC(=O)C(=O)/C(=C\NC(=S)Nc1ccccc1Cl)C(=O)OCC | – | > 100 µM (inactive) | > 100 µM (inactive) | > 100 µM (inactive) | > 100 µM (inactive) | > 100 µM (inactive) | > 100 µM (inactive) | > 100 µM (inactive) | > 100 µM (inactive) | > 100 µM (inactive) | > 100 µM (inactive) | > 100 µM (inactive) | > 100 µM (inactive) | 3.59 µM (inactive) | > 100 µM (inactive) | > 100 µM (inactive) | > 100 µM (inactive) | > 100 µM (inactive) | > 100 µM (inactive) | –
12 | CCC1C(=O)C(O)[C@H]2[C@@H]3C(O)CC4=CC(=O)CC[C@]4(C)[C@H]3CC[C@]12C (some centres undefined) | > 50 µM (inactive) | > 50 µM (inactive) | > 50 µM (inactive) | > 50 µM (inactive) | > 50 µM (inactive) | > 50 µM (inactive) | > 50 µM (inactive) | > 50 µM (inactive) | > 50 µM (inactive) | > 50 µM (inactive) | > 50 µM (inactive) | > 50 µM (inactive) | > 50 µM (inactive) | > 50 µM (inactive) | > 50 µM (inactive) | > 50 µM (inactive) | > 50 µM (inactive) | > 50 µM (inactive) | > 50 µM (inactive) | –
13 | O=C1Cc2ccccc2CCc2ccccc21 | > 100 µM (inactive) | > 100 µM (inactive) | > 100 µM (inactive) | > 100 µM (inactive) | > 100 µM (inactive) | > 100 µM (inactive) | > 100 µM (inactive) | > 100 µM (inactive) | > 100 µM (inactive) | > 100 µM (inactive) | 74.6 µM (inactive) | > 100 µM (inactive) | > 100 µM (inactive) | 35.6 µM (inactive) | – | 79.6 µM (inactive) | > 100 µM (inactive) | 45.4 µM (inactive) | 68.9 µM (inactive) | –
14 | O=S(O)CCCCCSSCCCCSSCCCCCS(=O)O | > 100 µM (inactive) | 33.8 µM (inactive) | > 100 µM (inactive) | 41.2 µM (inactive) | > 100 µM (inactive) | > 100 µM (inactive) | > 100 µM (inactive) | > 100 µM (inactive) | > 100 µM (inactive) | > 100 µM (inactive) | > 100 µM (inactive) | > 100 µM (inactive) | > 100 µM (inactive) | > 100 µM (inactive) | – | > 100 µM (inactive) | > 100 µM (inactive) | 85.3 µM (inactive) | 64.9 µM (inactive) | –
15 | C(=N\Cc1ccccc1)/c1ccccc1-c1ccccc1/C=N/Cc1ccccc1 | > 10 µM (inactive) | 3.52 µM (inactive) | 2.7 µM (inactive) | 2.65 µM (inactive) | > 10 µM (inactive) | > 10 µM (inactive) | 9.86 µM (inactive) | > 10 µM (inactive) | > 10 µM (inactive) | > 10 µM (inactive) | > 8.67 µM (inactive) | > 8.34 µM (inactive) | > 10 µM (inactive) | > 10 µM (inactive) | > 10 µM (inactive) | > 10 µM (inactive) | > 10 µM (inactive) | > 10 µM (inactive) | > 10 µM (inactive) | –

Reference: ChEMBL document CHEMBL1201862, “PubChem BioAssay data set” (2004)
